Calls of active or inactive are those of the source. The calls are words filed in the database; no cut-off is given here.
Tests used:
[1] = system: HepG2; experiment: Reduction in cholesterol biosynthesis in human HepG2 cells incubated at 5 uM for 14 hrs followed by sodium [14C]-acetate addition measured after 4 hrs; assay type: functional, cell-based
[2] = system: HepG2; experiment: Effect on triglyceride biosynthesis in human HepG2 cells at 30 uM; assay type: functional, cell-based
[3] = Cytotoxicity against human HepG2 cells assessed as cell viability after 48 hrs by MTT assay; assay type: cell-based; design: concentration or dose not given beside the values; settings: read-out: Activity
[4] = system: HepG2; experiment: Stimulation of triglyceride biosynthesis in human HepG2 cells incubated at 5 uM for 14 hrs followed by sodium [14C]-acetate addition measured after 4 hrs; assay type: functional, cell-based
[5] = system: HepG2; experiment: Effect on sterol biosynthesis in human HepG2 cells at 30 uM; assay type: functional, cell-based
[6] = system: HepG2; experiment: Stimulation of triglyceride biosynthesis in human HepG2 cells incubated at 2 uM for 14 hrs followed by sodium [14C]-acetate addition measured after 4 hrs; assay type: functional, cell-based
[7] = system: HepG2; experiment: Cytotoxicity against human HepG2 cells assessed as cell viability up to 2 uM after 48 hrs by MTT assay; assay type: cell-based; settings: hepg2, 48 h
[8] = system: HepG2; experiment: Reduction in cholesterol biosynthesis in human HepG2 cells incubated at 2 uM for 14 hrs followed by sodium [14C]-acetate addition measured after 4 hrs; assay type: functional, cell-based

CC(C)CCNC(=O)/C=C1/CC[C@H]2[C@@H]3CC=C4C[C@@H](O)CC[C@]4(C)[C@H]3CC[C@]12C
Activity [1]: inactive | Activity [2]: inactive | viability at 48 h [3]: > 70% | Activity [4]: inactive | Activity [5]: inactive

CC(C)(CO)NC(=O)/C=C1/CC[C@H]2[C@@H]3CC=C4C[C@@H](O)CC[C@]4(C)[C@H]3CC[C@]12C
Activity [1]: inactive | Activity [2]: inactive | viability at 48 h [3]: > 70% | Activity [4]: inactive | Activity [5]: inactive

COC(=O)CNC(=O)/C=C1\CC[C@H]2[C@@H]3CC=C4C[C@@H](O)CC[C@]4(C)[C@H]3CC[C@]12C
Activity [1]: inactive | Activity [2]: inactive | viability at 48 h [3]: > 70% | Activity [4]: Active | Activity [5]: inactive

CC(CO)(CO)NC(=O)/C=C1/CC[C@H]2[C@@H]3CC=C4C[C@@H](O)CC[C@]4(C)[C@H]3CC[C@]12C
Activity [1]: inactive | Activity [2]: inactive | viability at 48 h [3]: > 70% | Activity [4]: inactive | Activity [5]: inactive

CC(CO)(CO)NC(=O)/C=C1\CC[C@H]2[C@@H]3CC=C4C[C@@H](O)CC[C@]4(C)[C@H]3CC[C@]12C
Activity [2]: inactive | viability at 48 h [3]: > 70% | Activity [5]: inactive

C[C@]12CC[C@H](O)CC1=CC[C@@H]1[C@@H]2CC[C@]2(C)/C(=C/C(=O)NC(CO)(CO)CO)CC[C@@H]12
Activity [2]: inactive | viability at 48 h [3]: > 70% | Activity [5]: inactive

CC(C)(CO)NC(=O)/C=C1\CC[C@H]2[C@@H]3CC=C4C[C@@H](O)CC[C@]4(C)[C@H]3CC[C@]12C
Activity [2]: inactive | viability at 48 h [3]: > 70% | Activity [5]: inactive

C[C@]12CC[C@H](O)CC1=CC[C@@H]1[C@@H]2CC[C@]2(C)/C(=C/C(=O)NCCO)CC[C@@H]12
Activity [1]: Active | Activity [2]: inactive | viability at 48 h [3]: > 70% | Activity [4]: Active | Activity [5]: inactive

C[C@]12CC[C@H](O)CC1=CC[C@@H]1[C@@H]2CC[C@]2(C)/C(=C\C(=O)NC(CO)(CO)CO)CC[C@@H]12
Activity [1]: inactive | Activity [2]: inactive | viability at 48 h [3]: > 70% | Activity [4]: inactive | Activity [5]: inactive

C[C@]12CC[C@H](O)CC1=CC[C@@H]1[C@@H]2CC[C@]2(C)/C(=C\C(=O)NCCO)CC[C@@H]12
Activity [1]: inactive | Activity [2]: inactive | viability at 48 h [3]: > 70% | Activity [4]: inactive | Activity [5]: inactive

CC(C)CCNC(=O)/C=C1\CC[C@H]2[C@@H]3CC=C4C[C@@H](O)CC[C@]4(C)[C@H]3CC[C@]12C
Activity [1]: Active | Activity [2]: inactive | viability at 48 h [3]: > 70% | Activity [4]: Active | Activity [5]: inactive

C[C@H](CCCC(C)(C)O)[C@H]1CC[C@H]2[C@@H]3CC=C4C[C@@H](O)CC[C@]4(C)[C@H]3CC[C@]12C
Activity [6]: Active | Activity [7]: Non-toxic | Activity [2]: inactive | viability at 48 h [3]: > 70% | Activity [8]: Active | Activity [5]: inactive

CN(C)C(=O)CNC(=O)/C=C1\CC[C@H]2[C@@H]3CC=C4C[C@@H](O)CC[C@]4(C)[C@H]3CC[C@]12C
Activity [1]: Active | Activity [2]: inactive | viability at 48 h [3]: > 70% | Activity [4]: Active | Activity [5]: inactive

Source: ChEMBL document CHEMBL2346612, “Pregna-5,17(20)-dien-21-oyl amides affecting sterol and triglyceride biosynthesis in Hep G2 cells” (Bioorg Med Chem Lett, 2013)
